# Molecular target: T1, hDGAT1 (Homo sapiens, UniProt O75907)
# T1 sequence (O75907 1-488): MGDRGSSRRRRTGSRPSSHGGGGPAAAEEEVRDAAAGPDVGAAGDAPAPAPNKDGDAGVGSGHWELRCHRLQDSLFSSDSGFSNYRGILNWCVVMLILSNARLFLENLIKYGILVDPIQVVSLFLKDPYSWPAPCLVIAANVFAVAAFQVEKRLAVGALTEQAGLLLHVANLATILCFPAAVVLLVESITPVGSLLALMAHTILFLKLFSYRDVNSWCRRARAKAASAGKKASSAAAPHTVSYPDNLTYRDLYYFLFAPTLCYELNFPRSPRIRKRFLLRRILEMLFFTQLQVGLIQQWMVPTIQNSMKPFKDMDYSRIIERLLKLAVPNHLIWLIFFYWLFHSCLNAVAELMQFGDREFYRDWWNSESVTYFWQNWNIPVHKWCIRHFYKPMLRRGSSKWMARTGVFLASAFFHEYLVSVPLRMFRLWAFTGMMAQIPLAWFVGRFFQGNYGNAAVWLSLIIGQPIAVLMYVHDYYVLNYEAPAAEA
# Assay: In-vitro DGAT1 assay (14C oleoyl CoA, hDGAT1 microsomes from Sf9 cells)
# Settings: at 1 μM
row,Structure (SMILES),% Inhibition of hDGAT1
1,"O=C(Nc1ccc(-c2ccc3c(c2)C(=O)N(C24C[C@@H]5C[C@@H](CC(C(=O)O)(C5)C2)C4)C3)cc1)c1cccc(Cl)c1 [Example 567, (1r,3s,5R,7S)-3-(6-(4-(3-Chlorobenzamido)phenyl)-1-oxoisoindolin-2-yl)adamantane-1-carboxylic acid]",+ (10-50% Inhibition)
2,"Cc1cc(NC(=O)c2ccc(-c3ccccc3)cc2)ccc1-c1ccc2c(c1)C(=O)N([C@H](C(=O)O)C(C)C)C2 [Example 470, (S)-2-(6-(4-Biphenyl-4-ylcarboxamido-2-methylphenyl)-1-oxoisoindolin-2-yl)-3-methylbutanoic acid]",++ (>50% Inhibition)

# Same assay, conditions: read-out: % Inhibition of hDGAT1
row,inhibition at 1 µM [%],Structure (SMILES)
1,10 to 50,"CC(C)[C@@H](C(=O)O)N1Cc2ccc(-c3ccc(NC(=O)Nc4cccc(F)c4)cc3)cc2C1=O [Example 14, (S)-2-(6-(4-(3-(3-Fluorophenyl)ureido)phenyl)-1-oxoisoindolin-2-yl)-3-methyl butanoic acid]"
2,> 50,"CC(C)[C@@H](C(=O)O)N1Cc2ccc(-c3ccc(NC(=O)c4ccc5ccccc5c4)cc3)cc2C1=O [Example 122, (S)-2-(6-(4-(2-Naphthamido)phenyl)-1-oxoisoindolin-2-yl)-3-methylbutanoic acid]"
3,> 50,"COc1ccc(C(=O)Nc2ccc(-c3ccc4c(c3)C(=O)N([C@H](C(=O)O)C(C)C)C4)cc2)c(OC)c1 [Example 156, (S)-2-(6-(4-(2,4-Dimethoxybenzamido)phenyl)-1-oxoisoindolin-2-yl)-3-methyl butanoic acid]"
4,> 50,"CC(C)[C@@H](C(=O)O)N1Cc2cc(-c3ccc(NC(=O)c4ccc(Cl)cc4)cc3)ccc2C1=O [Example 321, (S)-2-(5-(4-(4-Chlorobenzamido)phenyl)-1-oxoisoindolin-2-yl)-3-methylbutanoic acid]"
5,> 50,"CCCCCCCCCc1ccc(C(=O)Nc2ccc(-c3ccc4c(c3)C(=O)N([C@H](C(=O)O)C(C)C)C4)cc2)cc1 [Example 186, (S)-3-Methyl-2-(6-(4-(4-nonylbenzamido)phenyl)-1-oxoisoindolin-2-yl)butanoic acid]"
6,10 to 50,"CC(C)[C@@H](C(=O)O)N1Cc2ccc(-c3ccc(NS(=O)(=O)Cc4ccccc4)cc3)cc2C1=O [Example 94, (S)-3-Methyl-2-(1-oxo-6-(4-(phenylmethylsulfonamido)phenyl)isoindolin-2-yl)butanoic acid]"
7,> 50,"Cc1ccc(C(=O)Nc2ccc(-c3ccc4c(c3)C(=O)N([C@H](C(=O)O)C(C)C)C4)cc2)cc1 [Example 112, (S)-3-Methyl-2-(6-(4-(4-methylbenzamido)phenyl)-1-oxoisoindolin-2-yl)butanoic acid]"
8,> 50,"CC(C)[C@@H](C(=O)O)N1Cc2ccc(-c3ccc(NC(=O)c4ccc(C(C)(C)C)cc4)cn3)cc2C1=O [Example 404, (S)-2-(6-(5-(4-tert-Butylbenzamido)pyridin-2-yl)-1-oxoisoindolin-2-yl)-3-methyl butanoic acid]"
9,10 to 50,"CC(C)[C@@H](C(=O)O)N1Cc2ccc(-c3ccc(NS(=O)(=O)c4ccc(C#N)cc4)cc3)cc2C1=O [Example 80, (S)-2-(6-(4-(4-Cyanophenylsulfonamido)phenyl)-1-oxoisoindolin-2-yl)-3-methyl butanoic acid]"
10,> 50,"CCCCCc1ccc(C(=O)Nc2ccc(-c3ccc4c(c3)C(=O)N([C@H](C(=O)O)C(C)C)C4)c(C)c2)cc1 [Example 474, (S)-3-Methyl-2-(6-(2-methyl-4-(4-pentylbenzamido)phenyl)-1-oxoisoindolin-2-yl)butanoic acid]"
11,> 50,"CC(C)[C@@H](C(=O)O)N1Cc2ccc(-c3ccc(NC(=O)Nc4ccc(C#N)cc4)cc3)cc2C1=O [Example 40, (S)-2-(6-(4-(3-(4-Cyanophenyl)ureido)phenyl)-1-oxoisoindolin-2-yl)-3-methyl butanoic acid]"
12,10 to 50,"CC(C)[C@@H](C(=O)O)N1Cc2cc(-c3ccc(NC(=O)c4cccc(Cl)c4)cc3)ccc2C1=O [Example 315, (S)-2-(5-(4-(3-Chlorobenzamido)phenyl)-1-oxoisoindolin-2-yl)-3-methylbutanoic acid]"
13,10 to 50,"CC(C)[C@@H](C(=O)O)N1Cc2ccc(-c3ccc(NC(=O)c4ccc(-c5cncnc5)cc4)cc3)cc2C1=O [Example 653, (S)-3-Methyl-2-(1-oxo-6-(4-(4-(pyrimidin-5-yl)benzamido)phenyl)isoindolin-2-yl)butanoic acid]"
14,> 50,"CC(C)[C@@H](C(=O)O)N1Cc2ccc(-c3ccc(NC(=O)c4ccc(C(C)(C)C#N)cc4)cc3)cc2C1=O [Example 631, (S)-2-(6-(4-(4-(2-Cyanopropan-2-yl)benzamido)phenyl)-1-oxoisoindolin-2-yl)-3-methylbutanoic acid]"
15,> 50,"Cc1cc(C(=O)Nc2ccc(-c3ccc4c(c3)C(=O)N([C@H](C(=O)O)C(C)C)C4)cc2)ccc1F [Example 162, (S)-2-(6-(4-(4-Fluoro-3-methylbenzamido)phenyl)-1-oxoisoindolin-2-yl)-3-methyl butanoic acid]"
16,> 50,"CC(C)[C@@H](C(=O)O)N1Cc2ccc(-c3ccc(NC(=O)c4ccccc4Oc4ccccc4)cc3)cc2C1=O [Example 152, (S)-3-Methyl-2-(1-oxo-6-(4-(2-phenoxybenzamido)phenyl)isoindolin-2-yl)butanoic acid]"
17,10 to 50,"CC(C)[C@@H](C(=O)O)N1Cc2ccc(-c3ccc(NC(=O)c4nnc(-c5ccccc5)[nH]4)cc3)cc2C1=O [Example 629, (S)-3-Methyl-2-(1-oxo-6-(4-(5-phenyl-4H-1,2,4-triazole-3-carboxamido)phenyl)isoindolin-2-yl)butanoic acid]"
18,10 to 50,"CC(C)[C@@H](C(=O)O)N1Cc2ccc(-c3ccc(NC(=S)Nc4ccc(Cl)cc4)cc3)cc2C1=O [Example 62, (S)-2-(6-(4-(3-(4-Chlorophenyl)thioureido)phenyl)-1-oxoisoindolin-2-yl)-3-methyl butanoic acid]"

# Second part, the compound before the results:
row,Structure (SMILES),inhibition at 1 µM [%]
1,"CC(C)[C@@H](C(=O)O)N1Cc2ccc(-c3ccc(NC(=O)Nc4ccccc4Cl)cc3C(F)(F)F)cc2C1=O [Example 416, (S)-2-(6-(4-(3-(2-Chlorophenyl)ureido)-2-(trifluoromethyl)phenyl)-1-oxoisoindolin-2-yl)-3-methylbutanoic acid]",10 to 50
2,"Cc1oc(-c2ccccc2)nc1C(=O)Nc1ccc(-c2ccc3c(c2)C(=O)N(C2CCCC(C(=O)O)C2)C3)cc1 (stereo not shown) [Example 553, 3-(6-(4-(5-Methyl-2-phenyloxazole-4-carboxamido)phenyl)-1-oxoisoindolin-2-yl)cyclohexanecarboxylic acid]",> 50
3,"O=C(Nc1ccc(-c2ccc3c(c2)C(=O)N([C@@H]2CCC[C@@H]2C(=O)O)C3)cc1)c1ccc(Cl)cc1 [Example 596, (1S,2R)-2-(6-(4-(4-Chlorobenzamido)phenyl)-1-oxoisoindolin-2-yl)cyclopentane carboxylic acid]",> 50
4,"CC(C)[C@@H](C(=O)O)N1Cc2ccc(-c3ccc(NC(=O)Nc4ccc(Cl)cc4Oc4ccccc4)cn3)cc2C1=O [Example 396, (S)-2-(6-(5-(3-(4-Chloro-2-phenoxyphenyl)ureido)pyridin-2-yl)-1-oxoisoindolin-2-yl)-3-methylbutanoic acid]",> 50
5,"CC(C)[C@@H](C(=O)O)N1Cc2cc(-c3ccc(NC(=S)Nc4cccc(Cl)c4)cc3)ccc2C1=O [Example 267, (S)-2-(5-(4-(3-(3-Chlorophenyl)thioureido)phenyl)-1-oxoisoindolin-2-yl)-3-methylbutanoic acid]",10 to 50
6,"CC(C)(C)c1ccc(C(=O)Nc2ccc(-c3ccc4c(c3)C(=O)N(C3(C(=O)O)CCCC3)C4)cc2)cc1 [Example 531, 1-(6-(4-(4-(tert-Butyl)benzamido)phenyl)-1-oxoisoindolin-2-yl)cyclopentane carboxylic acid]",> 50
7,"Cc1oc(-c2ccccc2)nc1C(=O)Nc1ccc(-c2ccc3c(c2)C(=O)N([C@H](C(=O)O)C(C)C)C3)nc1 [Example 655, (S)-3-Methyl-2-(6-(5-(5-methyl-2-phenyloxazole-4-carboxamido)pyridin-2-yl)-1-oxoisoindolin-2-yl)butanoic acid]",> 50
8,"CCCCCc1ccc(C(=O)Nc2ccc(-c3ccc4c(c3)C(=O)N(C(C)(C)C(=O)O)C4)cc2)cc1 [Example 525, 2-Methyl-2-(1-oxo-6-(4-(4-pentylbenzamido)phenyl)isoindolin-2-yl)propanoic acid]",10 to 50
9,"CCCCOc1ccc(C(=O)Nc2ccc(-c3ccc4c(c3)C(=O)N([C@H](C(=O)O)C(C)C)C4)c(C)c2)cc1 [Example 472, (S)-2-(6-(4-(4-Butoxybenzamido)-2-methylphenyl)-1-oxoisoindolin-2-yl)-3-methylbutanoic acid]",> 50
10,"CC(C)[C@@H](C(=O)O)N1Cc2cc(-c3ccc(NC(=O)Nc4ccc(F)cc4F)cc3)ccc2C1=O [Example 237, (S)-2-(5-(4-(3-(2,4-Difluorophenyl)ureido)phenyl)-1-oxoisoindolin-2-yl)-3-methylbutanoic acid]",> 50
11,"O=C(Nc1ccc(-c2ccc3c(c2)C(=O)N(C2(C(=O)O)CCCC2)C3)cc1)c1ccc(OC(F)(F)F)cc1 [Example 535, 1-(1-Oxo-6-(4-(4-(trifluoromethoxy)benzamido)phenyl)isoindolin-2-yl)cyclopentane carboxylic acid]",> 50

# Reference: US8748426B2, “Inhibitors of diacylglycerol acyl transferase” (Piramal Enterprises Limited, priority 2009, dated 2014)
